According to the pKa sets of Baltruschat and Czodrowski (2020):

Row | SMILES | pKa
1 | O=C(O)c1cccnc1 | 2.05
2 | CN(C)[C@@H]1C(O)=C(C(N)=O)C(=O)[C@@]2(O)C(O)=C3C(=O)c4c(O)cccc4[C@@](C)(O)C3[C@H](O)C12 (stereo partly specified) | 7.32
3 | CCCC(=O)OC(CC(=O)O)C[N+](C)(C)C (stereo unspecified) | 3.56
4 | CCCCCCCCCC(=O)OC(CC(=O)O)C[N+](C)(C)C (stereo unspecified) | 3.65
5 | COc1ccc2c3c1O[C@H]1[C@@H](O)C=CC4[C@@H](C2)NCC[C@@]341 (stereo partly specified) | 9.23
6 | Nc1ccc(C(=O)O)cc1 | 4.87
7 | CCCCCCCC(=O)OC(CC(=O)O)C[N+](C)(C)C (stereo unspecified) | 3.6

remark: another data set of the same source

Row | SMILES | pKa
8 | O=C(c1ccccc1)c1ccc2n1CCC2C(=O)O (stereo unspecified) | 3.5
9 | CCn1nc(C(=O)O)c(=O)c2cc3c(cc21)OCO3 | 4.7
10 | Cc1cccc(Nc2ccccc2C(=O)O)c1C | 4.5
11 | Cc1ccc(C(=O)c2ccc(CC(=O)O)n2C)cc1 | 3.5
